Measured values published in ChEMBL document CHEMBL4052601, “Glycybridins A-K, Bioactive Phenolic Compounds from Glycyrrhiza glabra” (J Nat Prod, 2017).
Peptide text beside a SMILES is read from it. * marks the point of attachment. Cbz = O=C(OCc1ccccc1)*

How the values were obtained:
[1] = target: T1, Tyrosine-protein phosphatase non-receptor type 1 (Homo sapiens) (UniProt P18031); conditions: at 10 µM;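 further: recombinant enzyme assay with pNPP substrate, inhibition read after 30 min versus untreated control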
T1 sequence (whole entry): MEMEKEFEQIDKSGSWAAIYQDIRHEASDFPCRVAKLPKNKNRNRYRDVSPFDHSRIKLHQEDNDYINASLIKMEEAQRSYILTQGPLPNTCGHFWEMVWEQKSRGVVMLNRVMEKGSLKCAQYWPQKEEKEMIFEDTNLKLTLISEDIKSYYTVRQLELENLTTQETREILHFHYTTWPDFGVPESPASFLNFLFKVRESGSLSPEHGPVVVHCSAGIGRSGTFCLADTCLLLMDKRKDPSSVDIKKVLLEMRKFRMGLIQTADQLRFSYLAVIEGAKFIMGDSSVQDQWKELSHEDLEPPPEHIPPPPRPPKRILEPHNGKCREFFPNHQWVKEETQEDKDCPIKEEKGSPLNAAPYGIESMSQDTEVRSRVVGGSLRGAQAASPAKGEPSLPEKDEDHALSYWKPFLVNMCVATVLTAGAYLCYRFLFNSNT
Description: Inhibition of recombinant human PTP1B using pNPP as substrate at 10 uM after 30 mins relative to control

RAW264.7 = assay: Antiinflammatory activity against mouse RAW264.7 cells assessed as inhibition of LPS-induced nitric oxide production at 10 uM after 24 hrs by Griess assay relative to control; assay type: functional; conditions: RAW264.7, 24 h
[2] = target: T2, Tyrosinase (Homo sapiens) (UniProt P14679); conditions: at 10 µM;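 further: tyrosinase of unspecified origin acting on L-tyrosine, compound preincubated with enzyme for 15 min before adding substrate, inhibition expressed versus control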
T2 sequence (whole entry): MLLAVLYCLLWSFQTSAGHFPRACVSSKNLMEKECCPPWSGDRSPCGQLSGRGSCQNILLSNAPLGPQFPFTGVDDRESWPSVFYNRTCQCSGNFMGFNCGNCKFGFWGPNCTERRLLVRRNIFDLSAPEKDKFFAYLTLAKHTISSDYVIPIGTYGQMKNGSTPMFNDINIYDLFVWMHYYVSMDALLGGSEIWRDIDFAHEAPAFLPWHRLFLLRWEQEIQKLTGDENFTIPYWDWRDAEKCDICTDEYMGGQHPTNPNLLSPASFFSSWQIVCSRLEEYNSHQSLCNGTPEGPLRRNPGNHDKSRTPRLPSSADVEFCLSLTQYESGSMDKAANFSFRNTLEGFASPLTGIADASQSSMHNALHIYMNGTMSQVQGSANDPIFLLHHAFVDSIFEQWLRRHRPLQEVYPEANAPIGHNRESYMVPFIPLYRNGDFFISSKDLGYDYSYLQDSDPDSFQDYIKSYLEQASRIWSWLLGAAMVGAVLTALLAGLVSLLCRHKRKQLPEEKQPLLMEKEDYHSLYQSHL
Description: Inhibition of tyrosinase (unknown origin) using L-tyrosine as substrate at 10 uM preincubated for 15 mins followed by substrate addition relative to control

A549 = assay: Antiproliferative activity against human A549 cells at 10 uM after 24 hrs by MTS assay relative to control; assay type: functional; conditions: A549, 24 h
Homo sapiens = assay: Inhibition of LPS-induced NF-kappaB (unknown origin) transactivation expressed in human SW480 cells at 10 uM administered 1 hr after LPS stimulation measured after 6 hrs by luciferase reporter gene assay relative to control; assay type: cell-based
HepG2 = assay: Antiproliferative activity against human HepG2 cells at 10 uM after 24 hrs by MTS assay relative to control; assay type: functional; conditions: HepG2, 24 h
MCF7 = assay: Antiproliferative activity against human MCF7 cells at 10 uM after 24 hrs by MTS assay relative to control; assay type: functional; conditions: MCF7, 24 h
SW480 = assay: Antiproliferative activity against human SW480 cells at 10 uM after 24 hrs by MTS assay relative to control; assay type: functional; conditions: SW480, 24 h

Row | SMILES | inhibition [1] [%] | inhibition at 10 µM (RAW264.7) [%] | inhibition [2] [%] | inhibition at 10 µM (A549) [%] | inhibition (Homo sapiens) [%] | inhibition at 10 µM (HepG2) [%] | inhibition at 10 µM (MCF7) [%] | inhibition at 10 µM (SW480) [%]
1 | CC1(C)C=Cc2c(cc(O)c3c(=O)c(-c4ccc(O)cc4)coc23)O1 [DERRONE] | 21 | 0 | 11 | 0 | 30.8 | 23.7 | 13.6 | 0
2 | COc1ccc(C2(O)COc3c(ccc(O)c3CC=C(C)C)C2=O)c(O)c1 (centres undefined) | 10.1 | 5.5 | 13.6 | 39.1 | 13.7 | 1.6 | 2.8 | 4.2
3 | CC(C)=CCc1cc(C[C@@H](O)C(=O)c2ccc(O)c(CC=C(C)C)c2O)ccc1O | 37.7 | 4.1 | 0 | 7.5 | 33.4 | 75.2 | 82.1 | 72
4 | CC1(C)C=Cc2cc(C[C@@H](O)C(=O)c3ccc(O)cc3O)ccc2O1 | 0.2 | 9.3 | 1 | 6.4 | 0 | 12.3 | 19.3 | 1.9
5 | CC1(C)C=Cc2c(ccc([C@@H]3COc4c(ccc5c4C=CC(C)(C)O5)C3)c2O)O1 [HISPAGLABRIDIN B] | 42 | 10.5 | 0 | 34.3 | 0 | 45.9 | 38.3 | 47.9
6 | O=C1C[C@@H](c2ccc(O)cc2)Oc2cc(O)ccc21 [LIQUIRTIGENIN] | 9.8 | 2.8 | 4.6 | 0 | 0 | 7 | 7.7 | 7.5
7 | CC(C)=CCc1cc([C@H]2Oc3cc(O)ccc3C[C@H]2O)ccc1O | 10.4 | 1.8 | 14.3 | 13.3 | 9.8 | 7.3 | 18.6 | 32.7
8 | CC(C)=CCc1c(O)cc(O)c2c(=O)c(-c3ccc(O)cc3)coc12 | 10.6 | 1.5 | 1.6 | 0 | 7.1 | 32.4 | 19.7 | 21.2
9 | CC(C)=CCc1c(O)ccc(C(=O)/C=C/c2cc(O)c3c(c2)C=CC(C)(C)O3)c1O | 47.1 | 2 | 0 | 10.9 | 23.1 | 21.7 | 72 | 34.7
10 | CC1(C)C=Cc2c(ccc(-c3oc4cc(O)ccc4c3C=O)c2O)O1 | 9.3 | 36.5 | 10.5 | 7.9 | 36.6 | 21 | 35.8 | 5.3
11 | CC1(C)C=Cc2c(ccc3cc(-c4ccc(O)cc4O)oc23)O1 | 73.1 | 14.2 | 66.9 | 0 | 17 | 12.3 | 20.4 | 27.6
12 | CC(C)C[C@@H](C=O)NC(=O)[C@H](CC(C)C)NC(=O)[C@H](CC(C)C)NC(=O)OCc1ccccc1 (Cbz-Leu-Leu-Leu-aldehyde) | – | – | – | – | 79.2 | – | – | –
13 | O=C1C[C@@H](c2ccc(O)cc2)Oc2cc(O)cc(O)c21 [NARINGENIN] | 4.1 | 0 | 2.2 | 0.3 | 0 | 34.5 | 16.8 | 0
14 | CC1(C)C=Cc2c(ccc3c2O[C@H]2c4ccc(O)cc4OC[C@@H]32)O1 [PHASEOLIN] | 9.5 | 2.6 | 2.4 | 34.7 | 2.1 | 0 | 6.8 | 0
15 | CC1(C)C=Cc2c(ccc3c2OCc2c-3oc3cc(O)ccc23)O1 | 18.1 | 7.4 | 26.3 | 0 | 1.4 | 0 | 33.7 | 1.1
16 | CC1(C)C=Cc2c(cc(O)c3c(=O)c(-c4ccc(O)cc4O)coc23)O1 | 57.6 | 5.6 | 28.7 | 4.3 | 0 | 12.7 | 12.7 | 29.6
17 | CC1(C)C=Cc2c(ccc3cc(-c4ccc(O)cc4O)c(=O)oc23)O1 [KANZONOL W] | 16.2 | 18.9 | 7.6 | 3.7 | 4.5 | 32.7 | 47.3 | 0
18 | CC(C)=CCc1cc(C[C@@H](O)C(=O)c2cc(CC=C(C)C)c(O)cc2O)ccc1O | 27 | 0 | 8.3 | 46.1 | 24.3 | 5.8 | 42.1 | 24.6
19 | COc1ccc([C@@H]2COc3c(ccc4c3C=CC(C)(C)O4)C2)c(O)c1O | 22.4 | 17.3 | 18.4 | 30.2 | 22.1 | 49.6 | 23.3 | 12.9
20 | CC1(C)C=Cc2c(O)ccc(-c3cc4ccc(O)cc4o3)c2O1 | 1.3 | 48.9 | 12.5 | 6.5 | 32.2 | 0 | 9.7 | 6.4
21 | CC1(C)C=Cc2cc([C@@H]3CC(=O)c4ccc5c(c4O3)C=CC(C)(C)O5)ccc2O1 [XAMBIOONA] | 76.9 | 6.9 | 0 | 10.9 | 0 | 0 | 0 | 7.9
22 | CC1(C)C=Cc2cc([C@@H]3CC(=O)c4ccc(O)cc4O3)ccc2O1 [ABYSSINONE I] | 10.1 | 0 | 2.9 | 0 | 23.1 | 33.9 | 13.8 | 17.4
23 | CC(C)=CCc1cc([C@H]2Oc3c(ccc(O)c3CC=C(C)C)C(=O)C2O)ccc1O (some centres undefined) | 43.9 | 0 | 0.8 | 24.8 | 37 | 39 | 33.2 | 25.2
24 | COc1cc(/C=C/C(=O)CC(=O)/C=C/c2ccc(O)c(OC)c2)ccc1O [CURCUMIN] | – | 70 | – | – | – | – | – | –
25 | COc1c(CC=C(C)C)c(O)cc2c1C[C@H](c1ccc(O)cc1O)CO2 | – | – | 91.1 | – | – | – | – | –
26 | CCc1c2c(nc3ccc(OC(=O)N4CCC(N5CCCCC5)CC4)cc13)-c1cc3c(c(=O)n1C2)COC(=O)[C@]3(O)CC [IRINOTECAN] | – | – | – | 91.8 | – | 98.9 | 93.6 | 95
27 | C[C@H]1[C@H](C)CC[C@]2(C(=O)O)CC[C@]3(C)C(=CC[C@@H]4[C@@]5(C)CC[C@H](O)C(C)(C)[C@@H]5CC[C@]43C)[C@H]12 | 82.1 | – | – | – | – | – | – | –
